According to PMC6146087, “α-Glucosidase Inhibitors From the Coral-Associated Fungus Aspergillus terreus” (Frontiers in Chemistry, 2018):

Target: T1, α-glucosidase enzyme from Saccharomyces cerevisiae (Saccharomyces cerevisiae, UniProt P53341)
T1 construct: purchased Sigma Aldrich, USA
Experiment: biochemical
Experimental: The α-glucosidase enzyme from Saccharomyces cerevisiae (Sigma Aldrich, USA) solution (1.5 U/mL) was prepared by dissolving the α-glucosidase in […] phosphate buffer (pH 6.8). The α-glucosidase enzyme solution (20 μL), test compounds (10 μL) and buffer (40 μL) were pipetted and mixed in a 96 well microtiter plate. The mixture was incubated at 37°C for 10 min. After incubation, p-nitrophenyl-α-D-glucopyranoside (PNP-G) substrate solution (10 μL, in 20 mM phosphate buffer) was added. The increment of absorbance due to the hydrolysis of PNP-G by α-glucosidase was measured at the wavelength of 410 nm with a microplate reader (Thermo Scientific, Waltham, MA). […] The α-glucosidase inhibitory activity was expressed as percentage inhibition and was calculated using the following formula: inhibition (%) = [1–(ODsample/ODblank)] × 100.

T1 sequence (P53341 whole entry): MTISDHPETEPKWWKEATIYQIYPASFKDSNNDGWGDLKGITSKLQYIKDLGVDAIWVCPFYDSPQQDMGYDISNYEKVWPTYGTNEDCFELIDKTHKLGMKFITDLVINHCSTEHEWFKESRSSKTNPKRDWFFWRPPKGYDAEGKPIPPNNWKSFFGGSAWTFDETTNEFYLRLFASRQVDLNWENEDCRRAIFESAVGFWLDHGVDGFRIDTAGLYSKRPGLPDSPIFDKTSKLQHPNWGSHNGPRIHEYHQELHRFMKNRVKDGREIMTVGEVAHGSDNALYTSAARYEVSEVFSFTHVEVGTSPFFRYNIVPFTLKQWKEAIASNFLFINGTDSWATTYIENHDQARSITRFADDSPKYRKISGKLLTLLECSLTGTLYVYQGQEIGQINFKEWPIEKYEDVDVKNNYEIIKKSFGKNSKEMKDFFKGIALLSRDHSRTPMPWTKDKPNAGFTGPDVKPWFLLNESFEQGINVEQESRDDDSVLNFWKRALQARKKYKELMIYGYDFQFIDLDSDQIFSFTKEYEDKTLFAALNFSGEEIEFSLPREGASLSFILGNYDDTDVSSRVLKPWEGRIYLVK

| IC50 | Compound |
| --- | --- |
| 53.1 ± 1.4 µM | COC(=O)[C@H](Cc1ccc(O)c(CC=C(C)C)c1)[C@@H](C(=O)O)c1ccc(O)cc1 [1b, (+)-Asperteretone A] |
| 49.8 ± 5.7 µM | COc1ccc(C2=C(Cc3ccc4c(c3)CC(C(C)(C)O)O4)[C@H](OC)OC2=O)cc1 (single isomer, unassigned; (+)) [3b, (+)-Asperteretone C] |
| 45.4 ± 3.8 µM | COC(=O)[C@@H](Cc1ccc(O)c(CC=C(C)C)c1)[C@H](C(=O)O)c1ccc(O)cc1 [1a, (−)-Asperteretone A] |
| 17.3 ± 2.4 µM | CO[C@H]1OC(=O)C(c2ccc(O)cc2)=C1Cc1ccc(O)c(CC=C(C)C)c1 [2a, (−)-Asperteretone B] |
| 19.2 ± 1.9 µM | CO[C@@H]1OC(=O)C(c2ccc(O)cc2)=C1Cc1ccc(O)c(CC=C(C)C)c1 [2b, (+)-Asperteretone B] |
| 48.9 ± 7.3 µM | COC1OC(=O)C(c2ccc(O)cc2)=C1Cc1ccc(O)c(CCC(C)(C)O)c1 (stereo not drawn) [compound 5, Asperteretone E] |
| 15.7 ± 1.1 µM | CO[C@H]1OC(=O)C(c2ccc(O)cc2)=C1Cc1ccc2c(c1)CCC(C)(C)O2 [4a, (−)-Asperteretone D] |
| 52.2 ± 4.6 µM | COc1ccc(C2=C(Cc3ccc4c(c3)CC(C(C)(C)O)O4)[C@@H](OC)OC2=O)cc1 (single isomer, unassigned; (-)) [3a, (−)-Asperteretone C] |
| 18.9 ± 2.3 µM | CO[C@@H]1OC(=O)C(c2ccc(O)cc2)=C1Cc1ccc2c(c1)CCC(C)(C)O2 [4b, (+)-Asperteretone D] |
